Starred links: 1 amine or outer side, 2 acyl side, 3 side chain; linkers in the order of their positions; H or OH if unused. Residues, ends and D or L forms follow the SMILES beside them. Groups on a side chain read outwards from the residue. No end group written: not given here. *: point of attachment. C18 diacid = O=C(O)CCCCCCCCCCCCCCCCC(=O)*; γGlu = O=C(O)[C@H](CCC(=O)[*:2])N[*:1]; Palmitoyl = CCCCCCCCCCCCCCCC(=O)*; AEEA = NCCOCCOCC(=O)O
B1: peptide of SEQ ID NO: 17 (peptide)
peptide: IVLSLDVPIKLK([γGlu-Palmitoyl])KILLEQEKQKKQREQAETNKQILAQV-NH2
modifications: N-terminus assumed
SMILES: CCCCCCCCCCCCCCCC(=O)N[C@@H](CCC(=O)NCCCC[C@H](NC(=O)[C@H](CC(C)C)NC(=O)[C@H](CCCCN)NC(=O)[C@@H](NC(=O)[C@@H]1CCCN1C(=O)[C@@H](NC(=O)[C@H](CC(=O)O)NC(=O)[C@H](CC(C)C)NC(=O)[C@H](CO)NC(=O)[C@H](CC(C)C)NC(=O)[C@@H](NC(=O)[C@@H](N)[C@@H](C)CC)C(C)C)C(C)C)[C@@H](C)CC)C(=O)N[C@@H](CCCCN)C(=O)N[C@H](C(=O)N[C@@H](CC(C)C)C(=O)N[C@@H](CC(C)C)C(=O)N[C@@H](CCC(=O)O)C(=O)N[C@@H](CCC(N)=O)C(=O)N[C@@H](CCC(=O)O)C(=O)N[C@@H](CCCCN)C(=O)N[C@@H](CCC(N)=O)C(=O)N[C@@H](CCCCN)C(=O)N[C@@H](CCCCN)C(=O)N[C@@H](CCC(N)=O)C(=O)N[C@@H](CCCNC(=N)N)C(=O)N[C@@H](CCC(=O)O)C(=O)N[C@@H](CCC(N)=O)C(=O)N[C@@H](C)C(=O)N[C@@H](CCC(=O)O)C(=O)N[C@H](C(=O)N[C@@H](CC(N)=O)C(=O)N[C@@H](CCCCN)C(=O)N[C@@H](CCC(N)=O)C(=O)N[C@H](C(=O)N[C@@H](CC(C)C)C(=O)N[C@@H](C)C(=O)N[C@@H](CCC(N)=O)C(=O)N[C@H](C(N)=O)C(C)C)[C@@H](C)CC)[C@@H](C)O)[C@@H](C)CC)C(=O)O
B2: peptide of SEQ ID NO: 51 (peptide)
peptide: FTLSLDVPTKIK([AEEA-AEEA-γGlu-C18 diacid])QILLKQQKQKKERQQAEKNKQLLEQI-NH2
modifications: N-terminus assumed
SMILES: CC[C@H](C)[C@H](NC(=O)[C@H](CCC(N)=O)NC(=O)[C@H](CCC(=O)O)NC(=O)[C@H](CC(C)C)NC(=O)[C@H](CC(C)C)NC(=O)[C@H](CCC(N)=O)NC(=O)[C@H](CCCCN)NC(=O)[C@H](CC(N)=O)NC(=O)[C@H](CCCCN)NC(=O)[C@H](CCC(=O)O)NC(=O)[C@H](C)NC(=O)[C@H](CCC(N)=O)NC(=O)[C@H](CCC(N)=O)NC(=O)[C@H](CCCNC(=N)N)NC(=O)[C@H](CCC(=O)O)NC(=O)[C@H](CCCCN)NC(=O)[C@H](CCCCN)NC(=O)[C@H](CCC(N)=O)NC(=O)[C@H](CCCCN)NC(=O)[C@H](CCC(N)=O)NC(=O)[C@H](CCC(N)=O)NC(=O)[C@H](CCCCN)NC(=O)[C@H](CC(C)C)NC(=O)[C@H](CC(C)C)NC(=O)[C@@H](NC(=O)[C@H](CCC(N)=O)NC(=O)[C@H](CCCCNC(=O)COCCOCCNC(=O)COCCOCCNC(=O)CC[C@H](NC(=O)CCCCCCCCCCCCCCCCC(=O)O)C(=O)O)NC(=O)[C@@H](NC(=O)[C@H](CCCCN)NC(=O)[C@@H](NC(=O)[C@@H]1CCCN1C(=O)[C@@H](NC(=O)[C@H](CC(=O)O)NC(=O)[C@H](CC(C)C)NC(=O)[C@H](CO)NC(=O)[C@H](CC(C)C)NC(=O)[C@@H](NC(=O)[C@@H](N)Cc1ccccc1)[C@@H](C)O)C(C)C)[C@@H](C)O)[C@@H](C)CC)[C@@H](C)CC)C(N)=O

Columns and labels:
[1] = Effect on body mass, body fat content and food intake in high-fat diet fed (DIO) mice (Example 18); assay type: in vivo, C57BL/6N Crl mice
Procedure: The peptide of SEQ ID NO: 35 was assessed for its ability to reduce body mass and body fat content in mice. Its efficacy was compared with that of a reference compound, namely the compound of Example 4 of WO2018013803 (Alsina-Fernandez; Eli Lilly and Company), referred to herein as “Compound A”.
Female C57BL/6N Crl mice were group housed under vivarium conditions that included a 12 h light/dark cycle and a room temperature of 23±1° C. All animals had free access to water and diet (Ssniff adjusted high fat diet: TD.97366, Soest, Germany) for 18 weeks prior to pharmacological intervention (dosing phase). After the pre-feeding period, mice were single housed and randomized according to body weight to treatment groups with n=8, so that each group has similar mean body weight. At the start of the study, mice were between 25-26 weeks old with body weight of 42-50 g. Mice were treated every second day during late afternoon hours prior lights off with a subcutaneous injection of 8 nmol/kg of the test compounds or their vehicle (phosphate-buffered saline (PBS). Body weight and food intake were measured daily throughout the dosing phase while body fat content was measured at day 0 prior to the start of treatment and at day 15. The study was terminated on day 15.
For statistical analyses a One-Way Analysis of Variance (ANOVA) was performed with SigmaStat 3.5. The test was performed with a risk alpha of 0.050 and a comparison versus the high fat diet-Vehicle group was performed with Dunnett's tests.

[2] = Effect on blood pressure, telemetry (Example 17); assay type: in vivo; conditions: Sprague Dawley rats, 0.1 mg/kg SC
Procedure, shortened: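 Sprague Dawley rats with an aortic-catheter telemetry implant, recovered at least 2 weeks, given compound or vehicle at 0.1 mg/kg SC. HR, SBP, DBP and MBP recorded continuously for 48 h. Each 4-hour post-dose mean was compared with a 1-hour pre-dose basal mean.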

[3] = molecular target: T1, recombinant human CRF2 (HEK cell membranes) (human, UniProt Q13324 1-411); test: Hill coefficient of the competition curve against [125]sauvagine, HEK membranes with recombinant human CRF2
T1 construct: Whole receptor in membranes prepared from HEK cells; also called CRF2a (h); CRF2 receptor
T1 sequence (looked up): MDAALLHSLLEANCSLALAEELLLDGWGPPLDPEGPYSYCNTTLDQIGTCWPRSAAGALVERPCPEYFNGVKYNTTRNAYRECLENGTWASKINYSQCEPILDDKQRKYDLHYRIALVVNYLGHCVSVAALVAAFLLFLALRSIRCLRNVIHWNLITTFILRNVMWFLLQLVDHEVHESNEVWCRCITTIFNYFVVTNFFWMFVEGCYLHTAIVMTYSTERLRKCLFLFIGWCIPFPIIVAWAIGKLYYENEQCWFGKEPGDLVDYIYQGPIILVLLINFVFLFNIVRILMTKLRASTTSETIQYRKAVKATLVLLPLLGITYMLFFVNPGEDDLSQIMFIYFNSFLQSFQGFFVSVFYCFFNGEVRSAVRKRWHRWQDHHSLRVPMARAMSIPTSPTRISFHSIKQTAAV
Procedure: (§1) HEK cells expressing recombinant human CRF2 were used as a source of receptor for membrane preparation.
(§2) IC50 values (concentration causing a half-maximal inhibition of control specific binding) and Hill coefficients (nH) were determined by non-linear regression analysis of the competition curves generated with mean replicate values using Hill equation curve fitting. The inhibition constants (Ki) were calculated using the Cheng Prusoff equation [Ki=IC50/(1+L/KD) where L is the concentration of radioligand in the assay, and KD is the affinity of the radioligand for the receptor). A Scatchard plot was used to determine the KD.

[4] = molecular target: T1, recombinant human CRF2 (HEK cell …); test: radioligand competition against [125]sauvagine (0.1 nM), HEK membranes with recombinant human CRF2; Cheng Prusoff
Procedure: as §1, §2

[5] = molecular target: T2, anti-target CRF1R receptor (UniProt P34998 24-415, limits assumed); test: cell-based or functional assay
T2 sequence (looked up): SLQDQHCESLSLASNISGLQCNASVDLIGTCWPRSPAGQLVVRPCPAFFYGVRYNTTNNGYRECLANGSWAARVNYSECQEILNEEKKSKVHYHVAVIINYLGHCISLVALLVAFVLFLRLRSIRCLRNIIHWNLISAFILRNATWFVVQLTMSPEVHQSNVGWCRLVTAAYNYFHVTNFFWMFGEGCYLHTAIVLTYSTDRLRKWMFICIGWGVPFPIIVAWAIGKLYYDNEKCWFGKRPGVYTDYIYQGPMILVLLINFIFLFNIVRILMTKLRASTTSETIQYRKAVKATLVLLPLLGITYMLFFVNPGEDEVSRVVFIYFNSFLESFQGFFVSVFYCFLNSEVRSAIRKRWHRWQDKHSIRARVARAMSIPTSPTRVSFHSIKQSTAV

rat CRF2R α receptor = rat CRF2R α receptor (rat, UniProt P47866 20-411); test: cell-based or functional assay

Molecule	cumulative food intake over 15 days ([1]; 8 nmol/kg s.c. every second day)	lean mass change ([1]; 8 nmol/kg s.c. every second day, 15 days)	relative body weight change ([1]; 8 nmol/kg s.c. every second day, 15 days, mean±SEM)	reduction in body fat content ([1]; 8 nmol/kg s.c. every second day, day 15 vs day 0)	food intake after first administration ([1]; 8 nmol/kg s.c., normalized after second treatment (FIG. 1))	Duration (h): last time point for which a significant effect on BP was still seen [2]	Effect on Systolic Pressure % change from baseline 8 h ([2]; 8 h)	Effect on Systolic Pressure % change from baseline 24 h ([2]; 24 h)	nH [3]	Ki [4]	EC50[nM] 0% HSA (cAMP, CRF1R-overexpression CHO cells) [5]	Emax (%) (cAMP, CRF1R-overexpression CHO cells) [5]	EC50 [nM], 0% HSA (cAMP, A7R5 cells) (rat CRF2R α receptor)
CC[C@H](C)[C@H](N)C(=O)N[C@H](C(=O)N[C@@H](CC(C)C)C(=O)N[C@@H](CO)C(=O)N[C@@H](CC(C)C)C(=O)N[C@@H](CC(=O)O)C(=O)N[C@H](C(=O)N1CCC[C@H]1C(=O)N[C@H](C(=O)N[C@@H](CCCCN)C(=O)N[C@@H](CC(C)C)C(=O)N[C@@H](CCCCNC(=O)COCCOCCNC(=O)COCCOCCNC(=O)CC[C@H](NC(=O)CCCCCCCCCCCCCCCCC(=O)O)C(=O)O)C(=O)N[C@@H](CCCCN)C(=O)N[C@H](C(=O)N[C@@H](CC(C)C)C(=O)N[C@@H](CC(C)C)C(=O)N[C@@H](CCC(=O)O)C(=O)N[C@@H](CCC(N)=O)C(=O)N[C@@H](CCC(=O)O)C(=O)N[C@@H](CCCCN)C(=O)N[C@@H](CCC(N)=O)C(=O)N[C@@H](CCCCN)C(=O)N[C@@H](CCCCN)C(=O)N[C@@H](CCC(N)=O)C(=O)N[C@@H](CCCNC(=N)N)C(=O)N[C@@H](CCC(=O)O)C(=O)N[C@@H](CCC(N)=O)C(=O)N[C@@H](C)C(=O)N[C@@H](CCC(=O)O)C(=O)N[C@H](C(=O)N[C@@H](CC(N)=O)C(=O)N[C@@H](CCCCN)C(=O)N[C@@H](CCC(N)=O)C(=O)N[C@H](C(=O)N[C@@H](CC(C)C)C(=O)N[C@@H](C)C(=O)N[C@@H](CCC(N)=O)C(=O)N[C@H](C(N)=O)C(C)C)[C@@H](C)CC)[C@@H](C)O)[C@@H](C)CC)[C@@H](C)CC)C(C)C)C(C)C [SEQ ID NO: 35] (H-IVLSLDVPIKLK([AEEA-AEEA-γGlu-C18 diacid])KILLEQEKQKKQREQAETNKQILAQV-NH2)	39.3 ± 2.5 g	−6.3±1.7%	−10.8±1.4%	−34.2±2.9%	meaningful reduction of food intake	30 h	−14.1%	−5.0%					
B1									1.5	4.4 nM			
B2									0.8		> 1000 nM	3.38%	0.87 nM

— patent US12679878B2, “CRF2 receptor agonists and their use in therapy” (SANOFI, priority 2020, dated 2026)
